Patent US20240309005A1 (priority 2021, published 2024)
Converted amounts (≈) assume the structure as drawn. Counter-ions that a name gives are not always drawn.

Legend:
[1] = in vivo; details: male, CD1, mouse; for Cmax / bioavailability: po, 30 mg/kg
[2] = physchem; details: 25 °C, kinetic from dmso stock
[3] = in vivo; details: male, SD, rat; for bioavailability / Cmax: po, 30 mg/kg; for Cmax: Cmax (ng/ml)
[4] = system: hERG / SGK1 (whole cell)

Row | half-life [1] [h] | Cmax [1] [ng/mL] | bioavailability [1] [%] | solubility at 2 h ([2]; pH 5, fessif) [µM] | solubility at 2 h ([2]; pH 7.4, aqueous buffer) [µM] | half-life [3] [h] | bioavailability [3] [%] | Cmax [3] [ng/mL] | SMILES | hERG/IC50 [4]
1 | 26 | 40.9 | 3.1 | 75 (≈ 40.1 µg/mL) | 0.66 (≈ 0.353 µg/mL) | 4.9 | 6.7 | 354 | Cc1n[nH]c2nc(-c3ccc(NS(=O)(=O)c4cc(Cl)ccc4F)cc3)nc(OCCN(C)CCO)c12 [Compound 86, 5-chloro-2-fluoro-N-[4-(4-{2-[(2-hydroxyethyl)(methyl)amino]ethoxy}-3-methyl-1H-pyrazolo[3,4-d]pyrimidin-6-yl)phenyl]benzenesulfonamide] | –
2 | 2.2 | 16.8 | 0.75 | – | – | – | – | – | COc1ccc(F)c(S(=O)(=O)Nc2ccc(-c3nc(NCCN(C)CCO)c4c(C)n[nH]c4n3)cc2)c1 [Compound 77, 2-fluoro-N-{4-[4-({2-[(2-hydroxyethyl)(methyl)amino]ethyl}amino)-3-methyl-1H-pyrazolo[3,4-d]pyrimidin-6-yl]phenyl}-5-methoxybenzenesulfonamide] | –
3 | 1.5 | 143 | – | 311 (≈ 159 µg/mL) | 265 (≈ 135 µg/mL) | – | – | – | Cc1n[nH]c2nc(-c3ccc(NS(=O)(=O)c4cc(OC(C)C)ccn4)cc3)nc(NCCN(C)C)c12 [Compound 73, N-[4-(4-{[2-(dimethylamino)ethyl]amino}-3-methyl-1H-pyrazolo[3,4-d]pyrimidin-6-yl)phenyl]-4-isopropoxypyridine-2-sulfonamide] | –
4 | 2.4 | 788 | 4.9 | – | – | – | – | – | Cc1n[nH]c2nc(-c3ccc(NS(=O)(=O)c4cc(Cl)ccc4F)cc3)nc(NCCN(C)CCOC(=O)CC(C)C)c12 [Compound 83, 2-{[2-({6-[4-(5-chloro-2-fluorobenzenesulfonamido)phenyl]-3-methyl-1H-pyrazolo[3,4-d]pyrimidin-4-yl}amino)ethyl](methyl)amino}ethyl 3-methylbutanoate] | –
5 | 4.4 | 548 | 18.8 | 276 (≈ 144 µg/mL) | 295 (≈ 154 µg/mL) | – | – | – | Cc1n[nH]c2nc(-c3ccc(NS(=O)(=O)c4cc(C(F)(F)F)ccn4)cc3)nc(NCCN(C)C)c12 [Compound 30, N-(4-(4-((2-(dimethylamino)ethyl)amino)-3-methyl-1H-pyrazolo[3,4-d]pyrimidin-6-yl)phenyl)-4-(trifluoromethyl)pyridine-2-sulfonamide] | –
6 | – | 2.3 | 0.5 | 268 (≈ 139 µg/mL) | 52 (≈ 26.9 µg/mL) | – | – | – | Cc1n[nH]c2nc(-c3ccc(NS(=O)(=O)c4cc(Cl)ccc4F)cc3)nc(NCCN(C)C=O)c12 [Compound 18, N-[2-([6-[4-(5-chloro-2-fluorobenzenesulfonamide)phenyl]-3-methyl-1H-pyrazolo[3,4-d]pyrimidin-4-yl]amino)ethyl]-N-methylformamide] | –
7 | – | – | – | – | – | 7.5 | 5.3 | 283 | Cc1n[nH]c2nc(-c3ccc(NS(=O)(=O)c4cc(F)ccc4F)c(F)c3)nc(O[C@@H]3CCNC[C@@H]3F)c12 [Compound 155] | –
8 | 1.2 | 1740 | 11 | – | – | – | – | – | Cc1n[nH]c2nc(-c3ccc(NS(=O)(=O)c4cc(Cl)ccc4F)cc3)nc(NCCN(C)CCOC(=O)C(C)C)c12 [Compound 89, 2-{[2-({6-[4-(5-chloro-2-fluorobenzenesulfonamido)phenyl]-3-methyl-1H-pyrazolo[3,4-d]pyrimidin-4-yl}amino)ethyl](methyl)amino}ethyl 2-methylpropanoate trifluoroacetic acid] | –
9 | 2 | 1020 | 7.5 | 290 | 0.6 | – | – | – | CC(=O)OCCN(C)CCNc1nc(-c2ccc(NS(=O)(=O)c3cc(Cl)ccc3F)cc2)nc2[nH]nc(C)c12 [Compound 87, 2-[[2-([6-[4-(5-chloro-2-fluorobenzenesulfonamido)phenyl]-3-methyl-1H-pyrazolo[3,4-d]pyrimidin-4-yl]amino)ethyl](methyl)amino]ethyl acetate] | –
10 | – | – | – | 289 (≈ 136 µg/mL) | 282 (≈ 133 µg/mL) | – | – | – | Cc1n[nH]c2nc(-c3ccc(NS(=O)(=O)c4ccncc4F)cc3)nc(NCCN(C)C)c12 [Compound 15, N-[4-(4-[[2-(dimethylamino)ethyl]amino]-3-methyl-1H-pyrazolo[3,4-d]pyrimidin-6-yl)phenyl]-3-fluoropyridine-4-sulfonamide] | 4.7
11 | 2.4 | 523 | 5.5 | – | – | – | – | – | CCC(=O)OCCN(C)CCNc1nc(-c2ccc(NS(=O)(=O)c3cc(Cl)ccc3F)cc2)nc2[nH]nc(C)c12 [Compound 90, 2-{[2-({6-[4-(5-chloro-2-fluorobenzenesulfonamido)phenyl]-3-methyl-1H-pyrazolo[3,4-d]pyrimidin-4-yl}amino)ethyl](methyl)amino}ethyl propanoate; bis(trifluoroacetic acid)] | –
12 | 4.3 | 14.5 | 1.6 | – | – | – | – | – | Cc1n[nH]c2nc(-c3ccc(NS(=O)(=O)c4cc(Cl)ccc4F)cc3)nc(NCCN(C)CCOP(=O)(O)O)c12 [Compound 88, 2-{[2-({6-[4-(5-chloro-2-fluorobenzenesulfonamido)phenyl]-3-methyl-1H-pyrazolo[3,4-d]pyrimidin-4-yl}amino)ethyl](methyl)amino}ethoxyphosphonic acid] | –
13 | 2.2 | 2340 | 41 | 298 (≈ 156 µg/mL) | 15.9 (≈ 8.3 µg/mL) | – | – | – | Cc1n[nH]c2nc(-c3ccc(NS(=O)(=O)c4cc(Cl)ccc4F)c(F)c3)nc(NCCN(C)C)c12 [Compound 38, 5-chloro-N-(4-(4-((2-(dimethylamino)ethyl)amino)-3-methyl-1H-pyrazolo[3,4-d]pyrimidin-6-yl)-2-fluorophenyl)-2-fluorobenzenesulfonamide] | –
14 | 3 | 3720 | 128 | 321 (≈ 176 µg/mL) | 2.6 (≈ 1.43 µg/mL) | 5.06 | 40.5 | 3400 | Cc1n[nH]c2nc(-c3ccc(NS(=O)(=O)c4cc(Cl)ccc4F)c(F)c3)nc(OC3CCN(C)CC3)c12 [Compound 79, 5-chloro-2-fluoro-N-(2-fluoro-4-{3-methyl-4-[(1-methylpiperidin-4-yl)oxy]-1H-pyrazolo[3,4-d]pyrimidin-6-yl}phenyl)benzenesulfonamide] | –
15 | 3.2 | 54.9 | – | – | – | – | – | – | Cc1n[nH]c2nc(-c3ccc(NS(=O)(=O)c4cc(Cl)ccc4F)cc3)nc(O[C@@H]3CCN(CCO)C[C@@H]3F)c12 [Compound 50, 5-chloro-2-fluoro-N-[4-(4-{[(3S,4R)-3-fluoro-1-(2-hydroxyethyl)piperidin-4-yl]oxy}-3-methyl-1H-pyrazolo[3,4-d]pyrimidin-6-yl)phenyl]benzenesulfonamide] | –
16 | 4.5 | 319 | 2.2 | – | – | – | – | – | CCCC(=O)OCCN(C)CCNc1nc(-c2ccc(NS(=O)(=O)c3cc(Cl)ccc3F)cc2)nc2[nH]nc(C)c12 [Compound 91, 2-{[2-({6-[4-(5-chloro-2-fluorobenzenesulfonamido)phenyl]-3-methyl-1H-pyrazolo[3,4-d]pyrimidin-4-yl}amino)ethyl](methyl)amino}ethyl butanoate trifluoroacetic acid] | –
17 | – | – | – | – | – | 3.8 | 75 | 8120 | Cc1n[nH]c2nc(-c3ccc(NS(=O)(=O)c4cc(Cl)ccc4F)c(Cl)c3)nc(OC3CCN(C)CC3)c12 [Compound 101, 5-chloro-N-(2-chloro-4-{3-methyl-4-[(1-methylpiperidin-4-yl)oxy]-1H-pyrazolo[3,4-d]pyrimidin-6-yl}phenyl)-2-fluorobenzenesulfonamide] | –
18 | – | – | – | 274 (≈ 124 µg/mL) | 13.7 (≈ 6.2 µg/mL) | – | – | – | Cc1n[nH]c2nc(-c3ccc(NS(=O)(=O)c4cccnc4)cc3)nc(NCCN(C)C)c12 [Compound 23, N-[4-(4-[[2-(dimethylamino)ethyl]amino]-3-methyl-1H-pyrazolo[3,4-d]pyrimidin-6-yl)phenyl]pyridine-3-sulfonamide] | 4.1
19 | 1.7 | 607 | 4.5 | – | – | – | – | – | Cc1n[nH]c2nc(-c3ccc(NS(=O)(=O)c4cc(Cl)ccc4F)cc3)nc(NCCN(C)CCOC(=O)C(C)(C)C)c12 [Compound 82, 2-{[2-({6-[4-(5-chloro-2-fluorobenzenesulfonamido)phenyl]-3-methyl-1H-pyrazolo[3,4-d]pyrimidin-4-yl}amino)ethyl](methyl)amino}ethyl 2,2-dimethylpropanoate] | –
20 | – | – | – | – | – | 3.8 | 39.5 | 2480 | Cc1n[nH]c2nc(-c3ccc(NS(=O)(=O)c4cc(OC(C)C)ccn4)c(Cl)c3)nc(NCCN(C)C)c12 [Compound 100, N-[2-chloro-4-(4-{[2-(dimethylamino)ethyl]amino}-3-methyl-1H-pyrazolo[3,4-d]pyrimidin-6-yl)phenyl]-4-isopropoxypyridine-2-sulfonamide] | –
21 | – | – | – | – | – | 3.3 | 24 | 267 | COc1cc(-c2nc(NCCN(C)C)c3c(C)n[nH]c3n2)ccc1NS(=O)(=O)c1cc(F)ccc1F [Compound 96, N-[4-(4-{[2-(dimethylamino)ethyl]amino}-3-methyl-1H-pyrazolo[3,4-d]pyrimidin-6-yl)-2-methoxyphenyl]-2,5-difluorobenzenesulfonamide] | –
22 | – | – | – | – | – | 5.2 | 12 | 548 | Cc1n[nH]c2nc(-c3ccc(NS(=O)(=O)c4cc(F)ccc4F)c(Cl)c3)nc(O[C@@H]3CCNC[C@@H]3F)c12 [Compound 156, N-[2-chloro-4-(4-{[(3S,4R)-3-fluoropiperidin-4-yl]oxy}-3-methyl-1H-pyrazolo[3,4-d]pyrimidin-6-yl)phenyl]-2,5-difluorobenzenesulfonamide hydrochloride] | –
23 | – | – | – | 325 (≈ 173 µg/mL) | 19 (≈ 10.1 µg/mL) | – | – | – | Cc1n[nH]c2nc(-c3ccc(NS(=O)(=O)c4ccc(C#N)cc4)cc3)nc(OC3CCN(C(C)C)CC3)c12 [Compound 3, 4-cyano-N-(4-(4-((1-isopropylpiperidin-4-yl)oxy)-3-methyl-1H-pyrazolo[3,4-d]pyrimidin-6-yl)phenyl)benzenesulfonamide] | –
